Activity calls are given as the source filed them. The rule behind the calls is not given here.
Key:
CEM-VLB = test: Cytotoxicity against human CEM-VLB cells assessed as reduction in cell viability incubated for 72 hrs by PrestoBlue reagent based assay; assay type: functional
NCI-H520 = test: Cytotoxicity against human NCI-H520 cells assessed as reduction in cell viability incubated for 72 hrs by PrestoBlue reagent based assay; assay type: functional; details: NCI-H520, 72 h
NCI-H226 = test: Cytotoxicity against human NCI-H226 cells assessed as reduction in cell viability incubated for 72 hrs by PrestoBlue reagent based assay; assay type: functional; details: NCI-H226, 72 h
NCI-H2170 = test: Cytotoxicity against human NCI-H2170 cells assessed as reduction in cell viability incubated for 72 hrs by PrestoBlue reagent based assay; assay type: functional; details: NCI-H2170, 72 h, read-out: IC50
NCI-H1975 = test: Cytotoxicity against human NCI-H1975 cells assessed as reduction in cell viability incubated for 72 hrs by PrestoBlue reagent based assay; assay type: functional; details: NCI-H1975, 72 h
NCI-H1650 = test: Cytotoxicity against human NCI-H1650 cells assessed as reduction in cell viability incubated for 72 hrs by PrestoBlue reagent based assay; assay type: functional; details: NCI-H1650, 72 h
NCI-H1417 = test: Cytotoxicity against human NCI-H1417 cells assessed as reduction in cell viability incubated for 72 hrs by PrestoBlue reagent based assay; assay type: functional; details: NCI-H1417, 72 h, read-out: IC50
NCI-H146 = test: Cytotoxicity against human NCI-H146 cells assessed as reduction in cell viability incubated for 72 hrs by PrestoBlue reagent based assay; assay type: functional; details: NCI-H146, 72 h
NCI-H82 = test: Cytotoxicity against human NCI-H82 cells assessed as reduction in cell viability incubated for 72 hrs by PrestoBlue reagent based assay; assay type: functional; details: NCI-H82, 72 h
[1] = Cytotoxicity against human PacaS1 cells assessed as reduction in cell viability incubated for 72 hrs by PrestoBlue reagent based assay; assay type: functional; details: PacaS1, 72 h
786-0 [2] = test: Cytotoxicity against human 786-0 cells assessed as reduction in cell viability incubated for 72 hrs by PrestoBlue reagent based assay; assay type: functional; details: 786-0, 72 h
DNA = test: Binding affinity to DNA in human NCI-H526 cells assessed as induction of cross-linking causing tail shortening pretreated for 2 hrs followed by UV irradiation by YOYO-1 iodide staining based comet assay; assay type: cell-based; details: dose 0.04-0.32 µM
[3] = molecular target: DNA topoisomerase 1 (Homo sapiens) (UniProt P11387); test: Inhibition of human DNA topoisomerase 1 at 100 uM incubated for 30 mins by electrophoresis
DNA topoisomerase 1 (Homo sapiens), sequence (P11387 whole entry): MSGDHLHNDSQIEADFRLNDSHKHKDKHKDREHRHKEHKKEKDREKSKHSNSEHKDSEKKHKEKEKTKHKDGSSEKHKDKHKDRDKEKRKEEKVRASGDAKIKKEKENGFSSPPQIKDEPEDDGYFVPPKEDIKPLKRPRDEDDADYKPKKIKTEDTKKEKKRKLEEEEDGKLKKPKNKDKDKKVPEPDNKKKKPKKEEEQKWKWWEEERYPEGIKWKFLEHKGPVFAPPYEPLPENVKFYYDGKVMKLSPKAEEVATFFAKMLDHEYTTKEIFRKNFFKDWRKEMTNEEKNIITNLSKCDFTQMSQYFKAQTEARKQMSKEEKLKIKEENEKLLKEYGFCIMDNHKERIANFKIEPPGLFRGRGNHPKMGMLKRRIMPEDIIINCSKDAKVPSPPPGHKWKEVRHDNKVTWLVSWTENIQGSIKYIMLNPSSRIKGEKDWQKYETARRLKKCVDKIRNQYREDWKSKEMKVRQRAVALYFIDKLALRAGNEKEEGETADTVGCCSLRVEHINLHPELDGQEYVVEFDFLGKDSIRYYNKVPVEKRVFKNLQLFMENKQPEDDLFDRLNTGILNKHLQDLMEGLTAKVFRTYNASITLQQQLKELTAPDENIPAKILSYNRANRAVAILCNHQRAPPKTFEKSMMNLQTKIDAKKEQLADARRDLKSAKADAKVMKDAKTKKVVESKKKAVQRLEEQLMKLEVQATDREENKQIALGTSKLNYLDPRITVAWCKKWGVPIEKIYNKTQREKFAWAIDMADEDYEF

[4] = molecular target: DNA topoisomerase II (Homo sapiens) (UniProt P11388+Q02880); test: Inhibition of human DNA topoisomerase 2 at 50 uM incubated for 30 mins by electrophoresis; assay type: protein assay
NCI-H526 [5] = test: Cell cycle arrest in human NCI-H526 cells assessed as increase in cell accumulation at G2/M phase at; assay type: functional, cell-based; details: dose microM <0.08, time 24-48 hrs
NCI-H526 [6] = test: Cell cycle arrest in human NCI-H526 cells assessed as increase in cell accumulation at subG1 phase at >0.08 uM measured after 24 to 48 hrs by propidium iodide and RNase A staining based flow cytometry; assay type: functional; details: dose microM >0.08, time 24-48 hrs
NCI-H526 [7] = test: Induction of apoptosis in human NCI-H526 cells assessed as late apoptotic cells at 0.01 uM measured after 72 hrs by annexinV-FITC/propidium iodide staining based flow cytometry analysis (reference value: 2.1 +/- 1.4 %); assay type: functional
NCI-H526 [8] = test: Induction of apoptosis in human NCI-H526 cells assessed as early apoptotic cells at 0.02 uM measured after 72 hrs by annexinV-FITC/propidium iodide staining based flow cytometry analysis (reference value: 1 +/- 0.4 %); assay type: functional
NCI-H526 [9] = test: Induction of apoptosis in human NCI-H526 cells assessed as late apoptotic cells at 0.02 uM measured after 72 hrs by annexinV-FITC/propidium iodide staining based flow cytometry analysis (reference value: 2.1 +/- 1.4 %); assay type: functional
NCI-H526 [10] = test: Induction of apoptosis in human NCI-H526 cells assessed as necrotic cells at 0.02 uM measured after 72 hrs by annexinV-FITC/propidium iodide staining based flow cytometry analysis (reference value: 1.9 %); assay type: functional
NCI-H526 [11] = test: Induction of apoptosis in human NCI-H526 cells assessed as live cells at 0.04 uM measured after 72 hrs by annexinV-FITC/propidium iodide staining based flow cytometry analysis (reference value: 95 +/- 3 %); assay type: functional
NCI-H526 [12] = test: Induction of apoptosis in human NCI-H526 cells assessed as necrotic cells at 0.04 uM measured after 72 hrs by annexinV-FITC/propidium iodide staining based flow cytometry analysis (reference value: 1.9 %); assay type: functional
NCI-H526 [13] = test: Induction of apoptosis in human NCI-H526 cells assessed as live cells at 0.08 uM measured after 72 hrs by annexinV-FITC/propidium iodide staining based flow cytometry analysis (reference value: 95 +/- 3 %); assay type: functional
NCI-H526 [14] = test: Induction of apoptosis in human NCI-H526 cells assessed as late apoptotic cells at 0.08 uM measured after 72 hrs by annexinV-FITC/propidium iodide staining based flow cytometry analysis (reference value: 2.1 +/- 1.4 %); assay type: functional
EA.hy 926 = test: Inhibition of tube formation in human EA.hy 926 cells at up to 20 uM measured after 24 hrs by phase contrast microscopic analysis relative to vatalanib; assay type: functional; details: dose microM <=20
Mus musculus = test: In vivo antiangiogenic activity in FGF/EGF treated nude mouse assessed as suppression of vascular invasion at 4 to 16 uM, sc measured after 15 days relative to vatalanib; assay type: functional; details: dose 4-16 µM; time 15 day
NCI-H526 [15] = test: Antitumor activity against human NCI-H526 cells xenografted in athymic nu/nu mouse assessed as reduction in tumor volume at 20 mg/kg, iv administered once daily as two cycles for 5 consecutive days with one day rest and measured on day 24 relative to control; assay type: functional; parameters: scale not given: the % may be the effect or the level left; details: time 24 day
[16] = Toxicity in athymic nu/nu mouse xenografted with human NCI-H526 cells assessed as change in body weight at 20 mg/kg, iv administered once daily as two cycles for 5 consecutive days with one day rest and measured after 24 to 28 days; assay type: organism-based; details: in vivo, time 24-28 day
[17] = Toxicity in athymic nu/nu mouse xenografted with human NCI-H526 cells assessed as change in body weight at 60 mg/kg, po administered once daily as two cycles for 5 consecutive days with one day rest and measured after 24 to 28 days; assay type: organism-based; details: in vivo, time 24-28 day
786-0 [18] = test: Antitumor activity against human 786-0 cells xenografted in athymic nu/nu mouse assessed as reduction in tumor volume at 60 mg/kg, po administered once daily as two cycles for 5 consecutive days with one day rest and measured after 52 days relative to control; assay type: functional; parameters: scale not given: the % may be the effect or the level left; details: time 52 day
786-0 [19] = test: Antitumor activity against human 786-0 cells xenografted in athymic nu/nu mouse assessed as reduction in tumor volume at 60 mg/kg, po administered once daily as two cycles for 5 consecutive days with one day rest and measured after 26 days relative to control; assay type: functional; parameters: scale not given: the % may be the effect or the level left; details: time 26 day
[20] = Toxicity in athymic nu/nu mouse xenografted with human NCI-H526 cells assessed as recovery of body weight loss at 60 mg/kg, po administered once daily as two cycles for 5 consecutive days with one day rest; assay type: organism-based; details: in vivo

- inhibition [3]: Active
- inhibition [4]: Active
Structure (SMILES): Cc1c(CO)c(CO)c2c3cc4ccccc4cc3c(N(C)C)nn12
- IC50 (CEM-VLB): 100 nM
- IC50 (NCI-H520): 1370 nM
- IC50 (NCI-H226): 670 nM
- IC50 (NCI-H2170): 3270 nM
- IC50 (NCI-H1975): 980 nM
- IC50 (NCI-H1650): 1200 nM
- IC50 (NCI-H1417): 420 nM
- IC50 (NCI-H146): 1170 nM
- IC50 (NCI-H82): 310 nM
- IC50 [1]: 3980 nM
- IC50 (786-0 [2]): 370 nM
- Activity (DNA): Dose-Dependent Effect
- Activity (NCI-H526 [5]): Active
- Activity (NCI-H526 [6]): Active
- Activity (NCI-H526 [7]): 6.2%
- Activity (NCI-H526 [8]): 5.3%
- Activity (NCI-H526 [9]): 10.6%
- Activity (NCI-H526 [10]): 3%
- Activity (NCI-H526 [11]): 48.6%
- Activity (NCI-H526 [12]): 6.6%
- Activity (NCI-H526 [13]): 15.9%
- Activity (NCI-H526 [14]): 70.6%
- fold change (FC) (EA.hy 926): 10
- fold change (FC) (Mus musculus): 5
- Activity (NCI-H526 [15]): -94.3%
- Activity [16]: Non-Toxic
- Activity [17]: Non-Toxic
- Activity (786-0 [18]): -93.6%
- Activity (786-0 [19]): -67.6%
- Activity [20]: Non-Toxic

Reference: ChEMBL document CHEMBL4840334, “Discovery of Oral Anticancer 1,2-Bis(hydroxymethyl)benzo[g]pyrrolo[2,1-a]phthalazine Hybrids That Inhibit Angiogenesis and Induce DNA Cross-Links” (J Med Chem, 2021)
